Experiments:
[1] = test system: PRDX2; experiment: Human oxidative stress RT2 Profiler PCR array in HGEPp cells: PRDX2; settings: 100 μg/ml, 24 h, RT-PCR ΔΔCt
Description: (§2) Pooled primary HGEPp cells were propagated in CnT-Prime epithelial culture medium provided by CellnTec on 100 mm petri dishes coated with 30 mg/ml Type I rat tail collagen (BD Biosciences) diluted in Dulbecco's phosphate-buffered saline (DPBS). HGEPp cells were grown in 12×60 mm Nunc™ Cell Culture dishes at a 2.5×10^4 cells/cm2 density concentration.
(§3) All dosing solutions contained 0.3% of DMSO which is well below the maximum tolerated DMSO percent of 0.8% for HGEPp cells.
(§4) The cDNA from above was mixed with the RT2 SYBR Green fluor Mastermix and aliquoted into the wells of the RT2 Profiler PCR Array. RT-PCR was performed on an iCycler. Gene expression was compared using Ct values and the results were calculated using ΔΔ Ct method with normalization to the average expression levels of the five common genes (ACTB, B2M, GAPDH, HPRT, and RPL13A).

[2] = test system: NQO1; experiment: Human oxidative stress RT2 Profiler PCR array in HGEPp cells: NQO1; assay type: cell-based; settings: 100 μg/ml, 24 h, RT-PCR ΔΔCt
Description: (§1) RT-PCR was performed on an iCycler.

[3] = test system: GCLC; experiment: Human oxidative stress RT2 Profiler PCR array in HGEPp cells: GCLC; assay type: cell-based; settings: 100 μg/ml, 24 h, RT-PCR ΔΔCt
Description: as §1

[4] = test system: HGEPp cells; experiment: ROS production in H2O2-induced oxidatively stressed HGEPp cells; settings: HGEPp cells pretreated 24 hrs at 100 μg/mL, then 0.3 mM H2O2 for 4 h; positive control 139%
[5] = test system: GCLM; experiment: Human oxidative stress RT2 Profiler PCR array in HGEPp cells: GCLM; assay type: cell-based; settings: 100 μg/ml, 24 h, RT-PCR ΔΔCt
Description: as §1

[6] = test system: ALOX12; experiment: Human oxidative stress RT2 Profiler PCR array in HGEPp cells: ALOX12; assay type: cell-based; settings: 100 μg/ml, 24 h, RT-PCR ΔΔCt
Description: as §1

[7] = test system: MPO; experiment: Human oxidative stress RT2 Profiler PCR array in HGEPp cells: MPO; settings: 100 μg/ml, 24 h, RT-PCR ΔΔCt
Description: as §2, §3, §4

[8] = test system: GPX4; experiment: Human oxidative stress RT2 Profiler PCR array in HGEPp cells: GPX4; settings: 100 μg/ml, 24 h, RT-PCR ΔΔCt
Description: as §2, §3, §4

[9] = test system: PTGS1; experiment: Human oxidative stress RT2 Profiler PCR array in HGEPp cells: PTGS1; assay type: cell-based; settings: 100 μg/ml, 24 h, RT-PCR ΔΔCt
Description: as §1

[10] = test system: GSTP1; experiment: Human oxidative stress RT2 Profiler PCR array in HGEPp cells: GSTP1; assay type: cell-based; settings: 100 μg/ml, 24 h, RT-PCR ΔΔCt
Description: as §1

[11] = test system: GTF2i; experiment: Human oxidative stress RT2 Profiler PCR array in HGEPp cells: GTF2i; assay type: cell-based; settings: 100 μg/ml, 24 h, RT-PCR ΔΔCt
Description: as §1

[12] = test system: GPX1; experiment: Human oxidative stress RT2 Profiler PCR array in HGEPp cells: GPX1; assay type: cell-based; settings: 100 μg/ml, 24 h, RT-PCR ΔΔCt
Description: as §1

[13] = test system: UCP2; experiment: Human oxidative stress RT2 Profiler PCR array in HGEPp cells: UCP2; assay type: cell-based; settings: 100 μg/ml, 24 h, RT-PCR ΔΔCt
Description: as §1

[14] = test system: SOD1; experiment: Human oxidative stress RT2 Profiler PCR array in HGEPp cells: SOD1; assay type: cell-based; settings: 100 μg/ml, 24 h, RT-PCR ΔΔCt
Description: as §1

Row | Molecule | PRDX2 down regulation relative fold change [1] [fold] | NQO1 up regulation relative fold change [2] | GCLC up regulation relative fold change [3] | ROS level (optical density, Normal = 100% baseline) [4] [%] | GCLM up regulation relative fold change [5] | ALOX12 up regulation relative fold change [6] [fold] | MPO up regulation relative fold change [7] [fold] | GPX4 up regulation relative fold change [8] [fold] | PTGS1 down regulation relative fold change [9] [fold] | GSTP1 up regulation relative fold change [10] | GTF2i down regulation relative fold change [11] [fold] | GPX1 up regulation relative fold change [12] [fold] | UCP2 down regulation relative fold change [13] [fold] | SOD1 up regulation relative fold change [14] | further results
1 | Cc1c(-c2cnccn2)ssc1=S.Cl [Example 1, hydrochloride complex of oltipraz] | 0.31 | 3.14 fold | 3.35 fold | 128 | 2.33 fold | 6.38 | 3.22 | 2.86 | 0.28 | 2.77 fold | 0.33 | 4.81 | 0.26 | 3.86 fold | 
2 | Cc1c(-c2cncc[n+]2OC2=CC(=O)OC2=O)ssc1=S [Example 2, hydroxymaleate anhydride complex of oltipraz] | 0.26 | 4.07 fold | 4.52 fold | 116 | 3.01 fold | 6.46 | 3.21 | 2.84 | 0.23 | 3.07 fold | 0.26 | 4.8 | 0.15 | 5.13 fold | 
3 | Cc1c(-c2cnccn2)ssc1=S.O=S(=O)(O)CCO [Example 10, isethionic acid complex of oltipraz] | 0.28 | significantly higher up-regulation | significantly higher up-regulation | 113 | significantly higher up-regulation | 6.48 | 3.39 | 2.79 | 0.22 | significantly higher up-regulation | 0.31 | 4.86 | 0.16 | significantly higher up-regulation | NQO1 up regulation relative fold change ([2]; listed as Ex. 10): 4.26 fold; GCLC up regulation relative fold change ([3]; listed as Ex. 10): 4.52 fold; GCLM up regulation relative fold change ([5]; listed as Ex. 10): 3.11 fold; GSTP1 up regulation relative fold change ([10]; listed as Ex. 10): 3.18 fold; SOD1 up regulation relative fold change ([14]; listed as Ex. 10): 5.23 fold
4 | Diethyl Thiophosphate Complex of Oltipraz [Example 8] | 0.28 | 3.92 fold | 4.39 fold | 115 | 3.02 fold | 6.41 | 3.47 | 3.02 | 0.23 | 3.08 fold | 0.29 | 4.81 | 0.14 | 4.86 fold | 
5 | acetyl chloride complex of oltipraz [Example 3] | 0.33 | 3.36 fold | 3.27 fold | 129 | 2.38 fold | 6.33 | 3.10 | 2.83 | 0.29 | 2.87 fold | 0.32 | 4.76 | 0.26 | 4.24 fold | 
6 | benzoyl chloride complex of oltipraz [Example 6] | 0.31 | 3.17 fold | 3.31 fold | 131 | 2.25 fold | 5.93 | 3.05 | 2.91 | 0.28 | 2.74 fold | 0.36 | 4.43 | 0.28 | 3.92 fold | 
7 | diethyl dithiophosphate complex of oltipraz [Example 7] | 0.28 | 3.93 fold | 4.41 fold | 117 | 3.00 fold | 6.38 | 3.42 | 2.99 | 0.21 | 3.13 fold | 0.29 | 4.72 | 0.17 | 4.85 fold | 
8 | dimethyl phosphate complex of N-methyl oltipraz [Example 9] | 0.27 | significantly higher up-regulation | significantly higher up-regulation | 112 | significantly higher up-regulation | 6.43 | 3.41 | 2.93 | 0.21 | significantly higher up-regulation | 0.28 | 4.89 | 0.15 | significantly higher up-regulation | NQO1 up regulation relative fold change ([2]; listed as Ex. 9): 4.24 fold; GCLC up regulation relative fold change ([3]; listed as Ex. 9): 4.60 fold; GCLM up regulation relative fold change ([5]; listed as Ex. 9): 3.15 fold; GSTP1 up regulation relative fold change ([10]; listed as Ex. 9): 3.16 fold; SOD1 up regulation relative fold change ([14]; listed as Ex. 9): 5.22 fold
9 | methyl iodide complex of oltipraz [Example 5] | 0.32 | 3.15 fold | 3.38 fold | 134 | 2.27 fold | 6.04 | 3.18 | 2.85 | 0.28 | 2.90 fold | 0.33 | 4.98 | 0.29 | 3.89 fold | 
10 | n-butyl chloride complex of oltipraz [Example 4] | 0.32 | 3.34 fold | 3.35 fold | 128 | 2.38 fold | 5.82 | 3.20 | 2.96 | 0.27 | 2.88 fold | 0.35 | 4.80 | 0.25 | 4.15 fold | 
11 | thiobenzoic acid complex of oltipraz [Example 11] | 0.27 | 4.09 fold | 4.46 fold | 116 | 3.08 fold | 6.39 | 3.44 | 2.94 | 0.22 | 3.07 fold | 0.29 | 4.82 | 0.15 | 4.96 fold | 
